In patent US20250230193A1, “CYCLIC COMPOUND HAVING SELECTIVE KRAS INHIBITORY EFFECT ON HRAS AND NRAS” (CHUGAI SEIYAKU KABUSHIKI KAISHA, priority 2022, published 2025):

How the values were obtained:
[1] = biological target: GDP-bound HRAS wild-type protein (Homo sapiens, UniProt P01112); test: Binding to HRAS by surface plasmon resonance (SPR), Single Cycle Kinetics; conditions: KD ratio, GDP-bound HRAS wild-type vs GDP-bound KRAS wild-type, SPR
[2] = biological target: GDP-bound NRAS wild-type protein (Homo sapiens, UniProt P01111); test: Binding to NRAS by surface plasmon resonance (SPR), Single Cycle Kinetics; conditions: KD ratio, GDP-bound NRAS wild-type vs GDP-bound KRAS wild-type, SPR
Sequence of GDP-bound NRAS wild-type protein (P01111 whole entry): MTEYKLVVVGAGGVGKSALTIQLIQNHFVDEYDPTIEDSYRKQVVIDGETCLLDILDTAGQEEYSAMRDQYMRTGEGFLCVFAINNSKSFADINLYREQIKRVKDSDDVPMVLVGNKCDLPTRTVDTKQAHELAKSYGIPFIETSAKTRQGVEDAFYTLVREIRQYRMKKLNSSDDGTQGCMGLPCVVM

Sequence of GDP-bound HRAS wild-type protein (P01112 whole entry): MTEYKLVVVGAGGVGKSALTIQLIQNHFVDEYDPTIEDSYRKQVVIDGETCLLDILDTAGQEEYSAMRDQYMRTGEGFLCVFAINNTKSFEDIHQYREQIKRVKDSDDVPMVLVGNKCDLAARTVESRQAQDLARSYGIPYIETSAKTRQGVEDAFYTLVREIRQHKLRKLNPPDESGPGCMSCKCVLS

| Structure (SMILES) | HRAS/KRAS (ratio of KD value for HRAS to KD value for KRAS) [1] | NRAS/KRAS (ratio of KD value for NRAS to KD value for KRAS) [2] |
| --- | --- | --- |
| CC[C@H](C)[C@@H]1NC(=O)[C@H](CC)N(C)C(=O)C[C@@H](C(=O)N(C)CC)N(C)C(=O)[C@H](C2CCCC2)N(C)C(=O)C2(CC(C)(C)C2)NC(=O)[C@@H]2C[C@@H](C)CN2C(=O)[C@H](CCc2ccc(C(F)(F)F)c(OC)c2)NC(=O)CN(C)C(=O)[C@H](Cc2ccc(C)cc2)N2CC/C=C\C[C@@H](C2=O)N(C)C(=O)CN(C)C1=O [PP1870] | A (a compound having 10 or more and less than 20 is denoted as A) | A (a compound having 10 or more and less than 20 is denoted as A) |
| CCC[C@H]1C(=O)N[C@@H]([C@@H](C)CC)C(=O)N(C)CC(=O)N(C)[C@H]2C/C=C\CCN(C2=O)[C@@H](Cc2ccc(C)cc2)C(=O)N(C)CC(=O)N[C@@H](CCc2ccc(C(F)(F)F)c(OC)c2)C(=O)N2C[C@H](OCC)C[C@H]2C(=O)NC2(CCC2)C(=O)N(C)[C@@H](C2CCCC2)C(=O)N(C)[C@H](C(=O)N(C)C)CC(=O)N1C [PP1871] | A (a compound having 10 or more and less than 20 is denoted as A) | A (a compound having 10 or more and less than 20 is denoted as A) |
| CCO[C@@H]1C[C@H]2C(=O)NC3(CC(C)(C)C3)C(=O)N(C)[C@@H](C3CCCC3)C(=O)N(C)[C@H](C(=O)N(C)CC)CC(=O)N(C)[C@@H](CC)C(=O)N[C@@H]([C@@H](C)CC)C(=O)N(C)CC(=O)N(C)[C@H]3C/C=C\CCN(C3=O)[C@@H](Cc3ccc(C)cc3)C(=O)N(C)CC(=O)N[C@@H](CCc3ccc(C(F)(F)F)c(OC)c3)C(=O)N2C1 [PP1872] | A (a compound having 10 or more and less than 20 is denoted as A) | A (a compound having 10 or more and less than 20 is denoted as A) |
| CCO[C@@H]1C[C@H]2C(=O)NC3(CC(C)(C)C3)C(=O)N(C)[C@@H](C3CCCC3)C(=O)N(C)[C@H](C(=O)N(C)C)CC(=O)N(C)[C@@H](CC)C(=O)N[C@@H]([C@@H](C)CC)C(=O)N(C)CC(=O)N(C)[C@H]3C/C=C\CCN(C3=O)[C@@H](Cc3ccc(C)cc3)C(=O)N(C)CC(=O)N[C@@H](CCc3ccc(C(F)(F)F)c(OC)c3)C(=O)N2C1 [PP1873] | B (a compound having 3 or more and less than 10 is denoted as B) | A (a compound having 10 or more and less than 20 is denoted as A) |
| CC[C@H](C)[C@@H]1NC(=O)[C@H](CC)N(C)C(=O)C[C@@H](C(=O)N(C)CC)N(C)C(=O)[C@H](C2CCCC2)N(C)C(=O)C2(CC(C)(C)C2)NC(=O)[C@@H]2C[C@H](C)CN2C(=O)[C@H](CCc2ccc(C(F)(F)F)c(Cl)c2)NC(=O)CN(C)C(=O)[C@H](Cc2ccc(C)cc2)N2CC/C=C\C[C@@H](C2=O)N(C)C(=O)CN(C)C1=O [PP1874] | A (a compound having 10 or more and less than 20 is denoted as A) | A (a compound having 10 or more and less than 20 is denoted as A) |
| CC[C@H](C)[C@@H]1NC(=O)[C@H](CC)N(C)C(=O)C[C@@H](C(=O)N(C)CC)N(C)C(=O)[C@H](C2CCCC2)N(C)C(=O)C2(CC(C)(C)C2)NC(=O)[C@@H]2C[C@@H](C)CN2C(=O)[C@H](CCc2ccc(C(F)(F)F)c(Cl)c2)NC(=O)CN(C)C(=O)[C@H](Cc2ccc(C)cc2)N2CC/C=C\C[C@@H](C2=O)N(C)C(=O)CN(C)C1=O [PP1876] | A (a compound having 10 or more and less than 20 is denoted as A) | A (a compound having 10 or more and less than 20 is denoted as A) |
| CCO[C@@H]1C[C@H]2C(=O)NC3(CCC3)C(=O)N(C)[C@@H](C3CCCC3)C(=O)N(C)[C@H](C(=O)N(C)CC)CC(=O)N(C)[C@@H](CC3CC3)C(=O)N[C@@H]([C@@H](C)CC)C(=O)N(C)CC(=O)N(C)[C@H]3C/C=C\CCN(C3=O)[C@@H](Cc3ccc(C)cc3)C(=O)N(C)CC(=O)N[C@@H](CCc3ccc(C(F)(F)F)c(OC)c3)C(=O)N2C1 [PP1879] | B (a compound having 3 or more and less than 10 is denoted as B) | A (a compound having 10 or more and less than 20 is denoted as A) |
| CCO[C@@H]1C[C@H]2C(=O)NC3(CC(C)(C)C3)C(=O)N(C)[C@@H](C3CCCC3)C(=O)N(C)[C@H](C(=O)N(C)CC)CC(=O)N(C)[C@@H](CC)C(=O)N[C@@H]([C@@H](C)CC)C(=O)N(C)CC(=O)N(C)[C@H]3C/C=C\CCN(C3=O)[C@@H](Cc3ccc(C)cc3)C(=O)N(C)CC(=O)N[C@@H](CCc3ccc(C(F)(F)F)c(Cl)c3)C(=O)N2C1 [PP1880] | B (a compound having 3 or more and less than 10 is denoted as B) | A (a compound having 10 or more and less than 20 is denoted as A) |
| CCO[C@@H]1C[C@H]2C(=O)NC3(CC(C)(C)C3)C(=O)N(C)[C@@H](C3CCCC3)C(=O)N(C)[C@H](C(=O)N(CC)CC)CC(=O)N(C)[C@@H](CC)C(=O)N[C@@H]([C@@H](C)CC)C(=O)N(C)CC(=O)N(C)[C@H]3C/C=C\CCN(C3=O)[C@@H](Cc3ccc(C)cc3)C(=O)N(C)CC(=O)N[C@@H](CCc3ccc(C(F)(F)F)c(OC)c3)C(=O)N2C1 [PP1881] | A (a compound having 10 or more and less than 20 is denoted as A) | A (a compound having 10 or more and less than 20 is denoted as A) |
| CCO[C@@H]1C[C@H]2C(=O)NC3(CC(C)(C)C3)C(=O)N(C)[C@@H](C3CCCC3)C(=O)N(C)[C@H](C(=O)N(CC)CC)CC(=O)N(C)[C@@H](CC)C(=O)N[C@@H]([C@@H](C)CC)C(=O)N(C)CC(=O)N(C)[C@H]3C/C=C\CCN(C3=O)[C@@H](Cc3ccc(C)cc3)C(=O)N(C)CC(=O)N[C@@H](CCc3ccc(C(F)(F)F)c(Cl)c3)C(=O)N2C1 [PP1883] | A (a compound having 10 or more and less than 20 is denoted as A) | A (a compound having 10 or more and less than 20 is denoted as A) |
| CC[C@H](C)[C@@H]1NC(=O)[C@H](CC(C)C)N(C)C(=O)C[C@@H](C(=O)N(CC)CC)N(C)C(=O)[C@H](C2CCCC2)N(C)C(=O)C2(CCC2)NC(=O)[C@@H]2C[C@H](C)CN2C(=O)[C@H](CCc2ccc(C(F)(F)F)c(OC)c2)NC(=O)CN(C)C(=O)[C@H](Cc2ccc(C)cc2)N2CC/C=C\C[C@@H](C2=O)N(C)C(=O)CN(C)C1=O [PP1885] | A (a compound having 10 or more and less than 20 is denoted as A) | AA (a compound having 20 or more is denoted as AA) |
| CCO[C@@H]1C[C@H]2C(=O)NC3(CC(C)(C)C3)C(=O)N(C)[C@@H](C3CCCC3)C(=O)N(C)[C@H](C(=O)N(C)CC)CC(=O)N(C)[C@@H](CC)C(=O)N[C@@H]([C@@H](C)CC)C(=O)N(C)CC(=O)N(C)[C@H]3C/C=C\CCN(C3=O)[C@@H](Cc3ccc(C)cc3)C(=O)N(C)CC(=O)N[C@@H](CCc3cc(F)c(C(F)(F)F)c(F)c3)C(=O)N2C1 [PP1886] | B (a compound having 3 or more and less than 10 is denoted as B) | A (a compound having 10 or more and less than 20 is denoted as A) |
| CCO[C@@H]1C[C@H]2C(=O)NC3(CCC3)C(=O)N(C)[C@@H](C3CCCC3)C(=O)N(C)[C@H](C(=O)N(CC)CC)CC(=O)N(C)[C@@H](CC(C)C)C(=O)N[C@@H]([C@@H](C)CC)C(=O)N(C)CC(=O)N(C)[C@H]3C/C=C\CCN(C3=O)[C@@H](Cc3ccc(C)cc3)C(=O)N(C)CC(=O)N[C@@H](CCc3ccc(C(F)(F)F)c(OC)c3)C(=O)N2C1 [PP1887] | B (a compound having 3 or more and less than 10 is denoted as B) | A (a compound having 10 or more and less than 20 is denoted as A) |
| CCC[C@H]1C(=O)N[C@@H]([C@@H](C)CC)C(=O)N(C)CC(=O)N(C)[C@H]2C/C=C\CCN(C2=O)[C@@H](Cc2ccc(C)cc2)C(=O)N(C)CC(=O)N[C@@H](CCc2ccc(C(F)(F)F)c(OC)c2)C(=O)N2C[C@@H](C)C[C@H]2C(=O)NC2(CC(C)(C)C2)C(=O)N(C)[C@@H](C2CCCC2)C(=O)N(C)[C@H](C(=O)N(C)C)CC(=O)N1C [PP1888] | B (a compound having 3 or more and less than 10 is denoted as B) | A (a compound having 10 or more and less than 20 is denoted as A) |
| CCC[C@H]1C(=O)N[C@@H]([C@@H](C)CC)C(=O)N(C)CC(=O)N(C)[C@H]2C/C=C\CCN(C2=O)[C@@H](Cc2ccc(C)cc2)C(=O)N(C)CC(=O)N[C@@H](CCc2ccc(C(F)(F)F)c(OC)c2)C(=O)N2C[C@@H](C)C[C@H]2C(=O)NC2(CC(C)(C)C2)C(=O)N(C)[C@@H](C2CCCC2)C(=O)N(C)[C@H](C(=O)N(C)CC)CC(=O)N1C [PP1889] | B (a compound having 3 or more and less than 10 is denoted as B) | A (a compound having 10 or more and less than 20 is denoted as A) |
| CCC[C@H]1C(=O)N[C@@H]([C@@H](C)CC)C(=O)N(C)CC(=O)N(C)[C@H]2C/C=C\CCN(C2=O)[C@@H](Cc2ccc(C)cc2)C(=O)N(C)CC(=O)N[C@@H](CCc2ccc(C(F)(F)F)c(OC)c2)C(=O)N2C[C@H](C)C[C@H]2C(=O)NC2(CC(C)(C)C2)C(=O)N(C)[C@@H](C2CCCC2)C(=O)N(C)[C@H](C(=O)N(C)C)CC(=O)N1C [PP1890] | B (a compound having 3 or more and less than 10 is denoted as B) | A (a compound having 10 or more and less than 20 is denoted as A) |
| CCC[C@H]1C(=O)N[C@@H]([C@@H](C)CC)C(=O)N(C)CC(=O)N(C)[C@H]2C/C=C\CCN(C2=O)[C@@H](Cc2ccc(C)cc2)C(=O)N(C)CC(=O)N[C@@H](CCc2ccc(C(F)(F)F)c(OC)c2)C(=O)N2C[C@H](C)C[C@H]2C(=O)NC2(CC(C)(C)C2)C(=O)N(C)[C@@H](C2CCCC2)C(=O)N(C)[C@H](C(=O)N(C)CC)CC(=O)N1C [PP1891] | A (a compound having 10 or more and less than 20 is denoted as A) | A (a compound having 10 or more and less than 20 is denoted as A) |
